Data as given in patent US5354749A, “Sulfonylbenzyl-substituted benzo- and pyridopyridones” (Bayer Aktiengesellschaft, priority 1992, dated 1994).

Tests used:
[1] = test system: angiotensin II-induced contraction of the isolated rabbit aorta; assay: Inhibition of angiotensin II-induced contraction (vasoconstriction) on isolated aortic rings from rabbits in vitro; settings: at 3rd = submaximum agonist concentration
Description: Rabbits of both sexes are stunned by a blow to the neck and exsanguinated, or optionally anaesthetised with Nembutal (about 60-80 mg/kg i.v.) and sacrificed by opening the thorax. The thoracic aorta is removed, freed from adhering connective tissue and divided into ring segments 1.5 mm wide, and these are introduced individually, under an initial load of about 3.5 g, into 10 ml organ baths with carbogen-gassed Krebs-Henseleit nutrient solution thermostatically controlled at 37° C. and having the following composition: 119 mmol/l of NaCl; 2.5 mmol/l of CaCl2 ×2 H2 O; 1.2 mmol/l of KH2 PO4; 10 mmol/l of glucose; 4.8 mmol/l of KCl; 1.4 mmol/l of MgSO4 ×7 H2 O and 25 mmol/l of NaHCO3.
The contractions are recorded isometrically by Statham UC2 cells via a bridge amplifier (from Mulheim or DSM Aalen) and digitised and evaluated by means of an A/D converter (System 570, Keithley Munich). The agonist dose/effect curves (DEC) are plotted hourly. For each DEC, 3 or 4 individual concentrations are applied to the baths at intervals of 4 minutes. At the end of the DEC and the subsequent wash-out cycles (16 times for in each case about 5 seconds/minute with the abovementioned nutrient solution), a 28-minute rest or incubation phase follows, within which the contractions as a rule reach the starting value again. […]

Angiotensin II receptor = target: T1, Angiotensin II receptor (Bos taurus, UniProt P25104); assay: Angiotensin II receptor binding on membrane fractions of the adrenal cortex (3H-angiotensin II); settings: bovine adrenal cortex membranes; 3H-angiotensin II 3-5 nM; 60 minutes, room temperature
T1 construct: carried out on partially purified membrane fractions of bovine AC with radioactive angiotensin II; from tissue; host or cells: bovine adrenal cortex, partially purified membrane fractions
T1 sequence (P25104 1-359): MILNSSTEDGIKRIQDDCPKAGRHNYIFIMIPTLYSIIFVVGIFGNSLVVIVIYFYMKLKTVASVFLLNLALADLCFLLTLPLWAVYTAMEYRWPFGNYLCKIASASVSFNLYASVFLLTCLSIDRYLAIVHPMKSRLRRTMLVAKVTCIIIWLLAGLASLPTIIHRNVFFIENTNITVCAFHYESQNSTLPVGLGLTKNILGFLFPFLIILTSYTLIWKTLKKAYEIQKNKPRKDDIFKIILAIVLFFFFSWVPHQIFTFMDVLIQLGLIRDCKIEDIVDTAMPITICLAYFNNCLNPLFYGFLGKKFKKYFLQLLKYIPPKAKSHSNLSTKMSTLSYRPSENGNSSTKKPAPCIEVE
Description: Bovine adrenal cortices (AC) which are freshly removed and thoroughly freed from medulla of the capsule are comminuted in sucrose solution (0.32 M) with the aid of an Ultra-Turrax (Janke & Kunkel, Staufen i.B.) to give a coarse membrane homogenate, which is partially purified in two centrifugation steps to give membrane fractions. The investigations in receptor binding are carried out on partially purified membrane fractions of bovine AC with radioactive angiotensin II in an assay volume of 0.25 ml which contains, specifically, the partially purified membranes (50-80 μg), ^3 H-angiotensin II (3-5 nM), test buffer solution (50 mM Tris, pH 7.2) 5 mM MgCl2 and the substances to be investigated. After an incubation time of 60 minutes at room temperature, the non-bound radioactivity of the samples is separated off by means of moistened glass fibre filters (Whatman GF/C) and the bound radioactivity is measured […] in a scintillation cocktail, after the protein has been washed with ice-cold buffer solution (50 mM Tris/HCl, pH 7.4, 5% PEG 6000). The raw data were analysed with computer programs to give Ki and IC50 values (Ki : IC50 values corrected for the radioactivity used; IC50 values: concentration at which the substance to be investigated causes 50% inhibition of the specific binding of the radioligand).

- IC50 [1]: 0.66 µM
- Ki (Angiotensin II receptor): 1.7 µM
SMILES: CCCCc1cc2ccccc2c(=O)n1Cc1ccc(S(=O)(=O)N2CCCC2C(=O)O)cc1Cl (centres unmarked) [Example 2, N-4-[3-Butyl-1,2-dihydro-1-oxo-isoquinolin-2-yl-methyl]3-chlorophenylsulphonylproline]
